Patent US20240197761A1, “FUCOSYLATION AND IMMUNE MODULATION IN CANCER” (H. LEE MOFFITT CANCER CENTER AND RESEARCH INSTITUTE, INC., priority 2021, published 2024)

Columns and labels:
[1] = tested on: NRAS G13D-mutant mouse melanoma (SW1) tumors; test: SW1 mouse melanoma model ± oral L-fucose: tumor growth, tumor fucosylation, itIC and splenic flow cytometric profiling; assay type: in vivo, C3H/HeN mice; settings: oral L-fuc
Procedure: Tumors of SW1 or SM1 melanoma cells from […] or C57BL/6 mice, respectively) were digested using 1× tumor digest buffer (0.5 mg/mL Collagenase I, 0.5 mg/mL Collagenase IV, 0.25 mg/mL Hyalyronidase V, 0.1 mg/mL DNAse I in HBSS (Millipore Sigma (St. Louis, MO)). Tumors were homogenized using the Miltenyi MACs dissociator. Red blood cells were lysed using ACK lysis buffer (Life Technologies, (Grand Island, NY)). Tumor homogenate cells were counted using a standard hemocytometer.
Total TILs were gated first to single cells (based on forward scatter height vs width, followed by side scatter height vs. width). Live cells were gated from the Zombie negative population from the population above. TILs were gated based on splenocyte size from a control spleen. Individual immune subpopulations were sub-gated from the total TIL population using the following staining criteria: CD3+ for CD3+ T cells; CD3+/CD4+/CD8− for CD4+T cells; CD3+/CD4−/CD8+ for CD8+ T cells, CD11c+/CD11b+ for DCs; either NK1.1 (for C57/BL6 mice) or DX5 (for C3H/HeJ) for NK cells; CD11b+/GR1+ for MDSC-like cells; and F4/80+ for macrophages. Single-cell suspensions from tumor and spleen tissue were stained with Live/Dead Zombie NIR (Biolegend, (San Diego, CA)) at 1:1,000 in PBS for 20 min. Cell suspensions were spun down and stained with the following with antibodies at 0.5 μg/ml per antibody: APC anti-mouse CD3, Pacific Blue anti-mouse CD4, BV785 anti-mouse CD8, PerCP anti-mouse CD25, FITC anti-mouse F4/80, PeCy7 anti-mouse CD11c, PE anti-mouse NK1.1 or PE anti-mouse DX5, and PerCP-Cy5.5 anti-mouse CD11 b. After staining, the cells were washed and fixed (2% formaldehyde), followed by another wash and flow cytometric analysis. The compensation controls were prepared using 0.5 μg/mL of each antibody with UltraComp eBeads, (ThermoFisher Scientific (Waltham, MA)). All samples were subject to flow cytometric profiling using a LSR Flow Cytometer (BD Biosciences (San Jose, CA)) and analysis as indicated using FlowJo software (BD Biosciences (San Jose, CA)).
For assessment of mouse tumor fucosylation, FFPE tumor sections were immunostained with FITC-conjugated AAL lectin (0.4 μg/mL, Vector Laboratories (Burlingame, CA)) and rabbit anti-Mart1+rabbit anti-S100 (melanoma marker cocktail). The slides were mounted with Vectashield+DAPI (Vector Laboratories (Burlingame, CA)). Four representative microscopy images per tumor were acquired using a Keyence BZ-X710, and images were process and analyzed using FIJI (NIH) as follows: melanoma marker-positive regions were assigned as regions of interest (ROI) in which we measured Integrated density of AAL signal. Integrated densities of control tumors were assigned as 1, and Integrated AAL density values of experimental tumors were divided by control to produce relative fold changes and plotted as column charts. […]

[2] = tested on: mouse bone marrow-derived myeloid progenitors; test: Myeloid phenotype profiling (M-MDSC, PMN-MDSC, moDC) of bone marrow-derived myeloid progenitors; assay type: cell-based; settings: ± GM/G-CSF, average values from 12 mice
Procedure: Next, we investigated the effect of L-fuc on NO production of bone marrow derived MDSCs (FIGS. 8A and 8B). We observed that L-fuc abrogated NO production in all cases. […] We also wanted to look at how L-fuc treatment effected the expression of immunosuppression genes (FIG. 9). We assessed the expression of key MDSC biology-related genes at 24 or 72 hours after in initial L-fuc treatment of the cells. Generally, we observed reductions in ARGI, PARP, and CHOP expression. In contrast we observed upregulation of STAT1. To further assess how L-fuc/fucosylation affects myeloid phenotype, we modulated fucosylation using DMSO (control), 2-fluoro-fucose (2FIF, fucosylation inhibitor), or L-fuc in mouse bone marrow-derived myeloid progenitors treated ±GM/G-CSF (FIG. 10). We profiled changes In M-MDSC vs. PMN-IMDSC, as well as moDC, as we observed immunostimulatory activity. […] Shown are the average values irom 12 mice. We also observed that L-fucose alters TLR profiles of dendritic cells (FIG. 11).

## C[C@H](O)[C@@H](O)[C@@H](O)[C@H](O)C=O [L-fucose]
[1]
  CD4+ and CD8+ T cells of total itICs: doubled
  increase of total itICs: 10-50 fold
  increase of tumor fucosylation: ~2 fold
  reduction of tumor growth: ~50%
  splenic lymphocyte profiles: without altering
[2]
  myeloid phenotype (M-MDSC vs. PMN-MDSC, moDC): enrichment of a monocytic phenotype, including increased moDCs
